Test system: disseminated L1210 murine leukemia
Experiment: Antileukemic activity against disseminated L1210 murine leukemia
Conditions: PNU 166196 0.52 mg/kg; for ILS % (increase in life span) / Tox (number of toxic deaths/number of mice): L1210 cells 10^5/mouse CD2F1 IV day 0, treatment iv day +1, doxorubicin 10 mg/kg (given 2 h after PNU 166196), alone or combined at the same doses
Description: For these experiments, PNU 166196 and doxorubicin were solubilized in water for injection.

SMILES | ILS % (increase in life span) | Tox (number of toxic deaths/number of mice) | toxicity (in words) (single agents, iv day +1, doxorubicin 10 mg/kg)
COc1cccc2c1C(=O)c1c(O)c3c(c(O)c1C2=O)C[C@@](O)(C(=O)CO)C[C@@H]3O[C@H]1C[C@H](N)[C@H](O)[C@H](C)O1 [Doxorubicin, doxorubicin, reference compound] | 58% | 0/10 | –
C=C(Br)C(=O)Nc1cc(C(=O)Nc2cc(C(=O)Nc3cc(C(=O)Nc4cc(C(=O)NCCNC(=N)N)n(C)c4)n(C)c3)n(C)c2)n(C)c1.Cl [PNU 166196, N-(5-{[(5-{[(5-{[(2-{[amino(imino)methyl]amino}ethyl)amino]carbonyl}-1-methyl-1H-pyrrol-3-yl)amino]carbonyl}-1-methyl-1H-pyrrol-3-yl)amino]carbonyl}-1-methyl-1H-pyrrol-3-yl)-4-[(2-bromoacryloyl)amino]-1-methyl-1H-pyrrole-2-carboxamide hydrochloride] | 33% | 0/10 | without toxicity

Reference: US20030162722A1, “Pharmaceutical compositions comprising acryloyl distamycin derivatives and topoisomerase I and II inhibitors” (priority 2000, published 2003)
